Data from patent US20220030867A1 (priority 2018, published 2022).

Tests used:
[1] = test system: Fusarium culmorum; experiment: whole plant or invertebrate; format: in vivo, Fusarium culmorum on wheat spikelets cv. Monsun; conditions: in Triticum aestivum, read-out: control of Fusarium culmorum

Row | Structure (SMILES) | pest or weed control at 200 ppm [1] | melting point
1 | CC(Cc1ccccc1)(CC(F)(F)Cl)C(=O)Nc1cnc2c(F)cccc2c1 (centres unmarked) [Compound E-56, 2-benzyl-4-chloro-4,4-difluoro-N-(8-fluoro-3-quinolyl)-2-methyl-butanamide] | ≥ 80% | –
2 | COC(C)(Cc1ccccc1)C(=O)Nc1cnc2c(F)cccc2c1 (centres unmarked) [Compound E-43, N-(8-fluoro-3-quinolyl)-2-methoxy-2-methyl-3-phenyl-propanamide] | ≥ 80% | 107 to 109 °C
3 | C=C(C)CC(C)(Cc1ccccc1)C(=O)Nc1cnc2c(Br)cccc2c1 (centres unmarked) [Compound E-63, 2-benzyl-N-(8-bromo-3-quinolyl)-2,4-dimethyl-pent-4-enamide] | ≥ 80% | 165 to 169 °C
4 | CC(Cc1ccccc1)(CC1(F)CC1)C(=O)Nc1cnc2c(F)cccc2c1 (centres unmarked) [Compound E-25, 2-benzyl-3-(1-fluorocyclopropyl)-N-(8-fluoro-3-quinolyl)-2-methyl-propanamide] | ≥ 80% | 162 to 164 °C
5 | CC(Cc1ccccc1)C(=O)Nc1cnc2c(F)cccc2c1 (centres unmarked) [Compound E-31, N-(8-fluoro-3-quinolyl)-2-methyl-3-phenyl-propanamide] | – | 188 to 190 °C
6 | C/C=C\CC(C)(Cc1ccccc1)C(=O)Nc1cnc2c(F)cccc2c1 (centres unmarked) [Compound E-28, (Z)-2-benzyl-N-(8-fluoro-3-quinolyl)-2-methyl-hex-4-enamide] | ≥ 80% | 128 to 130 °C
7 | C=C(Cl)CC(C)(Cc1ccccc1)C(=O)Nc1cnc2c(F)cccc2c1 (centres unmarked) [Compound E-53, 2-benzyl-4-chloro-N-(8-fluoro-3-quinolyl)-2-methyl-pent-4-enamide] | ≥ 80% | 148 to 150 °C
8 | O=C(Nc1cnc2c(F)cccc2c1)C(Cc1ccccc1)CC(F)(F)Cl (centres unmarked) [Compound E-58, 2-benzyl-4-chloro-4,4-difluoro-N-(8-fluoro-3-quinolyl)butanamide] | ≥ 80% | 65 to 70 °C
9 | C=C(F)CC(C)(Cc1ccccc1)C(=O)Nc1cnc2c(F)cccc2c1 (centres unmarked) [Compound E-71, 2-benzyl-4-fluoro-N-(8-fluoro-3-quinolyl)-2-methyl-pent-4-enamide] | ≥ 80% | 132 to 134 °C
10 | CC(F)(F)CC(C)(Cc1ccccc1)C(=O)Nc1cnc2c(F)cccc2c1 (centres unmarked) [Compound E-68, 2-benzyl-4,4-difluoro-N-(8-fluoro-3-quinolyl)-2-methyl-pentanamide] | ≥ 80% | 156 to 158 °C
11 | Cc1nc2c(F)cccc2cc1NC(=O)[C@](C)(Cc1ccccc1)CC(C)C [Compound F-7, (2S)-2-benzyl-N-(8-fluoro-2-methyl-3-quinolyl)-2,4-dimethyl-pentanamide] | ≥ 80% | –
12 | CC(Cc1ccccc1)(CC(F)(F)F)C(=O)Nc1cnc2cccc(F)c2c1 (centres unmarked) [Compound E-49, 2-benzyl-4,4,4-trifluoro-N-(5-fluoro-3-quinolyl)-2-methyl-butanamide] | – | 140 to 142 °C
13 | Cc1c(NC(=O)[C@](C)(Cc2ccccc2)CC(F)(F)F)cnc2c(F)cccc12 [Compound F-13, (2R)-2-benzyl-4,4,4-trifluoro-N-(8-fluoro-4-methyl-3-quinolyl)-2-methyl-butanamide] | ≥ 80% | –
14 | C=C(C)CC(C)(Cc1ccccc1)C(=O)Nc1cnc2c(F)cccc2c1 (centres unmarked) [Compound E-74, 2-benzyl-N-(8-fluoro-3-quinolyl)-2,4-dimethyl-pent-4-enamide] | ≥ 80% | 147 to 149 °C
15 | Cc1c(NC(=O)[C@@](C)(Cc2ccccc2)CC(F)(F)F)cnc2c(F)cccc12 [Compound F-14, (2S)-2-benzyl-4,4,4-trifluoro-N-(8-fluoro-4-methyl-3-quinolyl)-2-methyl-butanamide] | ≥ 80% | –
16 | CC(C)CC(C)(Cc1ccccc1)C(=O)Nc1cnc2c(Cl)cccc2c1 (centres unmarked) [Compound E-9, 2-benzyl-N-(8-chloro-3-quinolyl)-2,4-dimethyl-pentanamide] | – | 163 to 165 °C
17 | C=C(C)CC(C)(Cc1cccc(F)c1)C(=O)Nc1cc2cccc(F)c2nc1C (centres unmarked) [Compound E-12, N-(8-fluoro-2-methyl-3-quinolyl)-2-[(3-fluorophenyl)methyl]-2,4-dimethyl-pent-4-enamide] | – | 124 to 126 °C
18 | CC(C)CC(C#N)(Cc1ccccc1)C(=O)Nc1cnc2c(F)cccc2c1 (centres unmarked) [Compound E-83, 2-benzyl-2-cyano-N-(8-fluoro-3-quinolyl)-4-methyl-pentanamide] | ≥ 80% | –
19 | CC(Cc1ccccc1)(CC(F)F)C(=O)Nc1cnc2c(F)cccc2c1 (centres unmarked) [Compound E-55, 2-benzyl-4,4-difluoro-N-(8-fluoro-3-quinolyl)-2-methyl-butanamide] | ≥ 80% | –
20 | CC1(CC(C)(Cc2ccccc2)C(=O)Nc2cnc3c(F)cccc3c2)CC1 (centres unmarked) [Compound E-70, 2-benzyl-N-(8-fluoro-3-quinolyl)-2-methyl-3-(1-methylcyclopropyl)propanamide] | – | 149 to 151 °C
21 | COCN(C(=O)C(C)(Cc1ccccc1)CC(F)(F)F)c1cnc2c(F)cccc2c1 (centres unmarked) [Compound E-33, 2-benzyl-4,4,4-trifluoro-N-(8-fluoro-3-quinolyl)-N-(methoxymethyl)-2-methyl-butanamide] | – | 108 to 110 °C

Row | Structure (SMILES) | pest or weed control at 200 ppm [1] | melting point
22 | C=C(C)CC(C)(Cc1cccc(F)c1)C(=O)Nc1cnc2c(F)cccc2c1 (centres unmarked) [Compound E-11, 2-[(3-fluorophenyl)-methyl]-N-(8-fluoro-3-quinolyl)-2,4-dimethyl-pent-4-enamide] | – | 125 to 127 °C
23 | C=C(CC)CC(C)(Cc1ccccc1)C(=O)Nc1cnc2c(F)cccc2c1 (centres unmarked) [Compound E-54, 2-benzyl-N-(8-fluoro-3-quinolyl)-2-methyl-4-methylene-hexanamide] | – | 118 to 120 °C
24 | C=C(C)CC(C)(Cc1ccccc1)C(=O)Nc1cc2cccc(F)c2nc1C (centres unmarked) [Compound E-66, 2-benzyl-N-(8-fluoro-2-methyl-3-quinolyl)-2,4-dimethyl-pent-4-enamide] | ≥ 80% | –
25 | C=C(C)CC(C)(Cc1ccccc1)C(=O)Nc1cnc2ccccc2c1 (centres unmarked) [Compound E-64, 2-benzyl-2,4-dimethyl-N-(3-quinolyl)pent-4-enamide] | ≥ 80% | –
26 | C=C(C)CC(C)(Cc1ccccc1)C(=O)Nc1cnc2c(F)cccc2c1C (centres unmarked) [Compound E-65, 2-benzyl-N-(8-fluoro-4-methyl-3-quinolyl)-2,4-dimethyl-pent-4-enamide] | – | 105 to 109 °C
27 | CC(Cc1ccccc1)(CC(F)(F)F)C(=O)Nc1cnc2cc(F)ccc2c1 (centres unmarked) [Compound E-52, 2-benzyl-4,4,4-trifluoro-N-(7-fluoro-3-quinolyl)-2-methyl-butanamide] | – | 180 to 182 °C
28 | CC(C=C(F)F)(Cc1ccccc1)C(=O)Nc1cnc2c(F)cccc2c1 (centres unmarked) [Compound E-57, 2-benzyl-4,4-difluoro-N-(8-fluoro-3-quinolyl)-2-methyl-but-3-enamide] | ≥ 80% | –
29 | Cc1c(NC(=O)C(C)(Cc2ccccc2)CC(C)C)cnc2c(Cl)cccc12 (centres unmarked) [Compound E-14, 2-benzyl-N-(8-chloro-4-methyl-3-quinolyl)-2,4-dimethyl-pentanamide] | – | 124 to 126 °C
30 | CC(C)CC(Cc1ccccc1)C(=O)Nc1cnc2c(F)cccc2c1 (centres unmarked) [Compound E-35, 2-benzyl-N-(8-fluoro-3-quinolyl)-4-methyl-pentanamide] | ≥ 80% | –
31 | CCCC(C)(Cc1ccccc1)C(=O)Nc1cnc2c(F)cccc2c1 (centres unmarked) [Compound E-77, 2-benzyl-N-(8-fluoro-3-quinolyl)-2-methyl-pentanamide] | ≥ 80% | –
32 | CC(Cc1ccccc1)(CC(F)(F)F)C(=O)Nc1cnc2ccccc2c1 (centres unmarked) [Compound E-81, 2-benzyl-4,4,4-trifluoro-2-methyl-N-(3-quinolyl)butanamide] | ≥ 80% | –
33 | Cc1c(NC(=O)C(C)(Cc2ccccc2)CC(F)(F)F)cnc2c(Cl)cccc12 (centres unmarked) [Compound E-15, 2-benzyl-N-(8-chloro-4-methyl-3-quinolyl)-4,4,4-trifluoro-2-methyl-butanamide] | – | 73 to 75 °C
34 | Cc1nc2c(F)cccc2cc1NC(=O)C(C)(Cc1ccccc1)CC(F)(F)F (centres unmarked) [Compound E-47, 2-benzyl-4,4,4-trifluoro-N-(8-fluoro-2-methyl-3-quinolyl)-2-methyl-butanamide] | ≥ 80% | –
35 | C/C=C(\C)CC(C)(Cc1ccccc1)C(=O)Nc1cnc2c(F)cccc2c1 (centres unmarked) [Compound E-32, (E)-2-benzyl-N-(8-fluoro-3-quinolyl)-2,4-dimethyl-hex-4-enamide] | ≥ 80% | –
36 | COC(C)(Cc1ccccc1)C(=O)Nc1cc2cccc(F)c2nc1C (centres unmarked) [Compound E-41, N-(8-fluoro-2-methyl-3-quinolyl)-2-methoxy-2-methyl-3-phenyl-propanamide] | ≥ 80% | –
37 | CC(C)(Cc1ccccc1)C(=O)Nc1cnc2c(F)cccc2c1 [Compound E-69, N-(8-fluoro-3-quinolyl)-2,2-dimethyl-3-phenyl-propanamide] | ≥ 80% | –
38 | CC(C)OC(C)(Cc1ccccc1)C(=O)Nc1cnc2c(F)cccc2c1 (centres unmarked) [Compound E-40, N-(8-fluoro-3-quinolyl)-2-isopropoxy-2-methyl-3-phenyl-propanamide] | ≥ 80% | –
39 | CN(C(=O)C(C)(Cc1ccccc1)CC(F)(F)F)c1cnc2c(F)cccc2c1 (centres unmarked) [Compound E-42, 2-benzyl-4,4,4-trifluoro-N-(8-fluoro-3-quinolyl)-N,2-dimethyl-butanamide] | – | 137 to 139 °C
40 | Cc1nc2c(F)cccc2cc1NC(=O)[C@@](C)(Cc1ccccc1)CC(C)C [Compound F-8, (2R)-2-benzyl-N-(8-fluoro-2-methyl-3-quinolyl)-2,4-dimethyl-pentanamide] | ≥ 80% | –
41 | Cc1nc2c(F)cccc2cc1NC(=O)C(C)(Cc1ccccc1)OC(C)C (centres unmarked) [Compound E-39, N-(8-fluoro-2-methyl-3-quinolyl)-2-isopropoxy-2-methyl-3-phenyl-propanamide] | ≥ 80% | –
